Active and inactive are the calls of the source.
Key:
[1] = target: T1, Rac GTPase-activating protein 1 (Homo sapiens, UniProt Q9H0H5); experiment: blockers of MgcRacGAP-driven Rac1 GTP hydrolysis – biochemical, ADP Hunter fluorescence, primary and confirmatory, confirmation (AID 624330); format: functional
T1 sequence (Q9H0H5 whole entry): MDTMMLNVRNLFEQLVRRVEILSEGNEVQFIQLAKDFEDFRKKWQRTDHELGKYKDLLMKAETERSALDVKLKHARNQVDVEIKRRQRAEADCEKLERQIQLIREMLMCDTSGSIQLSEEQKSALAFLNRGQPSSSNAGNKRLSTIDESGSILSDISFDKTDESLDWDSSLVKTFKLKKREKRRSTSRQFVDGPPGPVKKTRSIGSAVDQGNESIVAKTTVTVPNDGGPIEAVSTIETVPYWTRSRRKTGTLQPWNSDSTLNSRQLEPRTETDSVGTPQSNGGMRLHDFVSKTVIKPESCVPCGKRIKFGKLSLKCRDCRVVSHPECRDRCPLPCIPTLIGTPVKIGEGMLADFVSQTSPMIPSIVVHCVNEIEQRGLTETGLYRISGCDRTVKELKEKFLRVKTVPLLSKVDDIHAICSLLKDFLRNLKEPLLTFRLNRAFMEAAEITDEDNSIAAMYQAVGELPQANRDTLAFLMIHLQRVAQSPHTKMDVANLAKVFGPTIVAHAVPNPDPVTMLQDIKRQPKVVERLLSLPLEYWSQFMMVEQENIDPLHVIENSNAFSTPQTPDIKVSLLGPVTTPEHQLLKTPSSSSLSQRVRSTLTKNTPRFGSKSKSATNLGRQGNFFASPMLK

[2] = Luminescence Cell-Based Dose Response HTS to Identify Inhibitors of 5'UTR Stem-Loop Driven Prion Protein mRNA Translation in H4 Neuroglioblastoma Cells. [Related pubchem assays: 1827 (Project Summary), 1813 (Primary HTS)]; format: functional
[3] = HEK-293T viability loss, compound-treated – cell-based, uHTS hits, cytotoxicity control for B/T-cell NF-kB inhibitor project, dose response (AID 489019); format: functional;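 also: IC50 reflects cytotoxicity as loss of cell viability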
[4] = viability loss in HeLa cells – cytotoxicity control for MgcRacGAP inhibitor project, dose response (AID 624300); format: functional
[5] = alpha-synuclein stem-loop luciferase translation blockers – H4 neuroglioma cells, luminescence, confirmation (AID 1988); format: functional, cell-based
Jurkat = experiment: blockers of NF-kB activation in T cells – Jurkat, luciferase reporter, luminescence, B- and T-cell, dose response (AID 489004); format: functional, cell-based; conditions: Homo sapiens;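 also: NF-kB luciferase reporter Jurkat cells stimulated with PMA plus ionomycin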
[6] = luciferase reporter signal suppression in cells – H4 neuroglioma cells, luminescence, dose response (AID 1990); format: functional, cell-based
A-375 [7] = experiment: proliferation inhibition in MITF-low A375 cells – cell-based, cherry-pick samples, set 2, counter-screen for MITF modulator project, dose response (AID 540335); format: functional; conditions: Homo sapiens
[8] = target: T2, Microphthalmia-associated transcription factor (Homo sapiens, UniProt O75030); experiment: reducers of TRPM1 reporter luminescence, concentration series – cell-based, SK-MEL-5, cherry-picked, set 3, MITF inhibitor project, dose response (AID 493073); format: functional;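 also: SK-MEL-5 melanoma cells with luciferase driven by the MITF target TRPM1 promoter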
T2 sequence (O75030 whole entry): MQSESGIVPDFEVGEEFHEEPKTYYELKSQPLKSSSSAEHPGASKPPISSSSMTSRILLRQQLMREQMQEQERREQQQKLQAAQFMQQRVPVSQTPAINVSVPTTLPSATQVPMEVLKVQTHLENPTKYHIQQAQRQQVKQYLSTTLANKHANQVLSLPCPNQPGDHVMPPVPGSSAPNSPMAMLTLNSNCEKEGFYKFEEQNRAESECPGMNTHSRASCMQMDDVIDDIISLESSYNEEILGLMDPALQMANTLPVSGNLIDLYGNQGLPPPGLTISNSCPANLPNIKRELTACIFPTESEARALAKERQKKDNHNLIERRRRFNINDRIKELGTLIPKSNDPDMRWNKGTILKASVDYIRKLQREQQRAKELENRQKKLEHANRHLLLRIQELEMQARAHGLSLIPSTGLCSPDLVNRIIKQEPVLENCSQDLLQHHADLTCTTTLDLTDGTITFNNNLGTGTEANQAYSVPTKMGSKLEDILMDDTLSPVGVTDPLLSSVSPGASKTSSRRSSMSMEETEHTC

A-375 [9] = experiment: MITF: Counter assay: A375 proliferation Measured in Cell-Based System Using Plate Reader - 2084-03_Inhibitor_Dose_DryPowder_Activity. [Related pubchem assays (depositor defined):AID488944]; format: functional; conditions: Homo sapiens
HEK293 [10] = experiment: cells; conditions: Homo sapiens
HEK293 [11] = experiment: cells; conditions: Homo sapiens; remark: listed apart in the source
[12] = target: T3, Alkaline phosphatase, tissue-nonspecific isozyme (Homo sapiens, UniProt P05186); experiment: TNAP enzyme inhibition by screening hits, dose response, selectivity assay for mouse IAP inhibitor project, biochemical, human TNAP, uHTS hits (AID 488906); format: functional
T3 sequence (P05186 whole entry): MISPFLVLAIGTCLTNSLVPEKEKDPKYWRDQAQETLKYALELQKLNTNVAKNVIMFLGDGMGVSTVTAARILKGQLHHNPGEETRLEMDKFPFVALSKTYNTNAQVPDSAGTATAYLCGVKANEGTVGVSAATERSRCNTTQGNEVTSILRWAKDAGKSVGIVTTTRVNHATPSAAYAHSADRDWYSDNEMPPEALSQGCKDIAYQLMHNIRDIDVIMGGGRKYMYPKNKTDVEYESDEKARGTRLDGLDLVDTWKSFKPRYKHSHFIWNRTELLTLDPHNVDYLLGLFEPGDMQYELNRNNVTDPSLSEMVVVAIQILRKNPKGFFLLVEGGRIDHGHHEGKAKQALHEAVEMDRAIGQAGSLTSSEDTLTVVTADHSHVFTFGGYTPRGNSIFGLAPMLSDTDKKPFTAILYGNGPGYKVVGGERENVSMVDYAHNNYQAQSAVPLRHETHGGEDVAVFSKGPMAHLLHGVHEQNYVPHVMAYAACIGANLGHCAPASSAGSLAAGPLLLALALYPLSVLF

[13] = THP-1 cell cytotoxicity, dose response, cytotoxicity control for non-replicating M. tuberculosis project (AID 489025); format: functional
[14] = target: Intestinal-type alkaline phosphatase (Homo sapiens, UniProt P09923); experiment: inhibition of human intestinal alkaline phosphatase – biochemical, dose response (AID 488876); format: functional
Sequence of Intestinal-type alkaline phosphatase (Homo sapiens, UniProt P09923) (P09923 whole entry): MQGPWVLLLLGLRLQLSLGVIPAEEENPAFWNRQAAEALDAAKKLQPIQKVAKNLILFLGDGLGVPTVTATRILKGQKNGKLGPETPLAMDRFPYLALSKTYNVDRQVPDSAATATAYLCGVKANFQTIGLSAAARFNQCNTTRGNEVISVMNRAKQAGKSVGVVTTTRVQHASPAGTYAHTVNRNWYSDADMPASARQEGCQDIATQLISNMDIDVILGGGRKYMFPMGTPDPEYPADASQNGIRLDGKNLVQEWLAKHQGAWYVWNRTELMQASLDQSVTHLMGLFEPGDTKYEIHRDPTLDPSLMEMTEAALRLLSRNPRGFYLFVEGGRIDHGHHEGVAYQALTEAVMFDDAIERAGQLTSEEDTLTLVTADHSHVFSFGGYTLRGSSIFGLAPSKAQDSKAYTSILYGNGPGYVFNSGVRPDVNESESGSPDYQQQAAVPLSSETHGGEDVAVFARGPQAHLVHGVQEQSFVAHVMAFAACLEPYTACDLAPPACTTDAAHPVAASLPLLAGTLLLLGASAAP

[15] = target: Heat shock protein HSP 90-alpha (Homo sapiens, UniProt P07900); format: functional, organism-based
[16] = target: Intestinal-type alkaline phosphatase (Mus musculus, UniProt P24822); experiment: PubChem AID 488785; format: functional
Sequence of Intestinal-type alkaline phosphatase (Mus musculus, UniProt P24822) (P24822 whole entry): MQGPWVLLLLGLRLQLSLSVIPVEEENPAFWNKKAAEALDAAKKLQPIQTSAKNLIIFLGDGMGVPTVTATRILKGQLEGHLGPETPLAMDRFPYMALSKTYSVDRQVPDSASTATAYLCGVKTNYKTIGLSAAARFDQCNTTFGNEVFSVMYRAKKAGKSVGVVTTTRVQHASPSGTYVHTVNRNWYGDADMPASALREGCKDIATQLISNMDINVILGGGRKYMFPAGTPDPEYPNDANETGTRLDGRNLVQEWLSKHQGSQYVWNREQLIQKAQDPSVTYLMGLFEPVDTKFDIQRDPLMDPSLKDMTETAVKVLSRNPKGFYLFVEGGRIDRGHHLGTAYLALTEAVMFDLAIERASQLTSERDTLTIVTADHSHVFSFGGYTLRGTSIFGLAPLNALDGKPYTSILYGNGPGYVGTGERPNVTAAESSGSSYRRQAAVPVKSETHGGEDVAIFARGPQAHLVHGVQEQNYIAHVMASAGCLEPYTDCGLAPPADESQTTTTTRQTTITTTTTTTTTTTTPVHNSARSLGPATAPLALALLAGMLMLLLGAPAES

[17] = Vero E6 cell cytotoxicity, dose response, cytotoxicity control for non-replicating M. tuberculosis project, secondary assay (AID 492998); format: functional, VeroE6; conditions: Vero C1008
[18] = microbe, parasite or virus in culture; format: functional; conditions: Mycobacterium tuberculosis
cells = format: functional

**Q.** Which results are given for `COc1ccc(CNc2ncc(-c3ccc(F)cc3)n2C)c2ccccc12`?
**A.** IC50 [1]: 62.6 µM (active); EC50 [2]: 6.58 µM (active); IC50 [3]: > 80 µM (inactive); CC50 [4]: 100 µM (active); EC50 [5]: 1.22 µM (active); IC50 (Jurkat): 1.97 µM (active); EC50 [6]: 10 µM (active)

**Q.** Which AC50 (A-375 [7]) does the source give for `CC1CCN(Cc2nc(-c3ccc(Cl)cc3)no2)CC1` here?
**A.** > 35 µM (active)

**Q.** And the AC50 [8]?
**A.** 7.62 µM (active)

**Q.** What about the AC50 (A-375 [9]) of the same compound?
**A.** > 35 µM (active)

**Q.** What does the source list for `Cc1ccc(-c2nc(C#N)c(NCc3ccco3)o2)cc1`?
**A.** AC50 (A-375 [7]): > 35 µM (active); AC50 (A-375 [9]): > 35 µM (active)

**Q.** Which EC50 (HEK293 [10]) does the source give for `CCCCn1c(SCc2ccc(Cl)cc2)nc2c1c(=O)[nH]c(=O)n2C` here?
**A.** > 59.6 µM (inactive)

**Q.** And the EC50 [2]?
**A.** 16.2 µM (active)

**Q.** What about the EC50 (HEK293 [11]) of the same compound?
**A.** > 59.6 µM (inactive)

**Q.** What about the EC50 [5] of the same compound?
**A.** 17 µM (active)

**Q.** What about the EC50 [6] of the same compound?
**A.** 15.8 µM (active)

**Q.** With `CCOC(=O)[C@@H](C)N(Cc1ccc(OC)cc1)S(=O)(=O)N(Cc1ccccc1)[C@H](C(=O)OC)C(C)C` as the compound, how does the EC50 (HEK293 [10]) read?
**A.** > 59.7 µM (inactive)

**Q.** What about the EC50 (HEK293 [11]) of the same compound?
**A.** > 59.7 µM (inactive)

**Q.** Which IC50 [12] does the source give for `O=C(N/N=C/c1ccc([N+](=O)[O-])o1)c1sc2ccccc2c1Cl` here?
**A.** > 100 µM (inactive)

**Q.** What about the CC50 [13] of the same compound?
**A.** 19.1 µM (active)

**Q.** And the AC50 (A-375 [7])?
**A.** > 11 µM (active)

**Q.** What about the IC50 [14] of the same compound?
**A.** > 100 µM (inactive)

**Q.** What about the AC50 [15] of the same compound?
**A.** 4.4 µM (active)

**Q.** What about the IC50 [16] of the same compound?
**A.** 7.89 µM (active)

**Q.** And the CC50 [17]?
**A.** > 20 µM (active)

**Q.** And the CC50 [18]?
**A.** 20.2 µM (active)

**Q.** And the IC50 (cells)?
**A.** 2.18 µM (active)

**Q.** And the AC50 [8]?
**A.** 4.61 µM (active)

**Q.** What about the AC50 (A-375 [9]) of the same compound?
**A.** > 11 µM (active)
